Consider one molecule from PMC5430895 (Scientific Reports, 2017).

Series [1] deals with T1, hOCT2 (Homo sapiens, UniProt O15244).
T1 sequence (O15244 1-555): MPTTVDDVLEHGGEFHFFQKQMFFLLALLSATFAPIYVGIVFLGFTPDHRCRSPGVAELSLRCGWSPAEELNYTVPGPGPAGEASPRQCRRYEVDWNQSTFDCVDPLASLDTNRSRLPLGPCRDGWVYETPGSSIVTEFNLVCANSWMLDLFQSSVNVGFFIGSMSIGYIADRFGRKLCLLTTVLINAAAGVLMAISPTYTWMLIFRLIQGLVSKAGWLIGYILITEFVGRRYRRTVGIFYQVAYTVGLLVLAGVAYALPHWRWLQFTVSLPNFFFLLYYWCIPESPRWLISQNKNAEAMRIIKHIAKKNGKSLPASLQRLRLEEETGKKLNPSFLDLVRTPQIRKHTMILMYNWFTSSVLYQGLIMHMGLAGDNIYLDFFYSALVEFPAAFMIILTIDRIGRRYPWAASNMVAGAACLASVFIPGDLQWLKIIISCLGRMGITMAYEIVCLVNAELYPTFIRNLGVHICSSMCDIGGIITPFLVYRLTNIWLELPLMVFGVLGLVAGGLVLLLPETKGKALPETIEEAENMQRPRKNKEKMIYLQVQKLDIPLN
The series is described as follows: Inhibition of ASP+ uptake in hOCT2-HEK293 cells (apparent affinity). To be noted: hOCT2-HEK293, ASP+ 1 µM. Also on record: expressed in transfected cells; host or cells: HEK293. It is filed as cell-based.

The subject of series [2] is WT-HEK293 cells. The series is described as follows: Saracatinib uptake in WT-HEK293 cells (HPLC-UV). To be noted: WT-HEK293, 10 µM saracatinib, 10 min.
Series [3] has as its target T2, hOCTN1 (Homo sapiens, UniProt Q9H015).
T2 sequence (Q9H015 1-551): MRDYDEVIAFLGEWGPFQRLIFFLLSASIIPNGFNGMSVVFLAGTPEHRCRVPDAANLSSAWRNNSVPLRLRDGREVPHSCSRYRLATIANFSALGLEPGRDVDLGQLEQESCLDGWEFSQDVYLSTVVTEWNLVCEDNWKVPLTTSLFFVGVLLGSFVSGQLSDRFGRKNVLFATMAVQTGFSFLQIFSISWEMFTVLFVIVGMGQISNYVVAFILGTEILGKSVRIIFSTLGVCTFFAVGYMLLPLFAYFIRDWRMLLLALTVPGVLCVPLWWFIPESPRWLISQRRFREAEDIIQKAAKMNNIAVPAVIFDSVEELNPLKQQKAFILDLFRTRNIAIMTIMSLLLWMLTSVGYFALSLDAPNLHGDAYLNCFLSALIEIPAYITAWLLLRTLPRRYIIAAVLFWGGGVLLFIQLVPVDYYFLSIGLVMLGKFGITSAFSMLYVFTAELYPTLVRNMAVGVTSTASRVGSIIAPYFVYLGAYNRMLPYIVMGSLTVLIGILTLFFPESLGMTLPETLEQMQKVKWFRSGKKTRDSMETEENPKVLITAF
In words: Inhibition of ASP+ uptake in hOCTN1-HEK293 cells (apparent affinity). It is filed as cell-based. Also on record: expressed in transfected cells; host or cells: HEK293, expression induced with 1 mg/l doxycycline. To be noted: hOCTN1-HEK293, ASP+ 1 µM.

The target in series [4] is T3, hMATE1 (Homo sapiens, UniProt Q96FL8).
T3 sequence (Q96FL8 1-570): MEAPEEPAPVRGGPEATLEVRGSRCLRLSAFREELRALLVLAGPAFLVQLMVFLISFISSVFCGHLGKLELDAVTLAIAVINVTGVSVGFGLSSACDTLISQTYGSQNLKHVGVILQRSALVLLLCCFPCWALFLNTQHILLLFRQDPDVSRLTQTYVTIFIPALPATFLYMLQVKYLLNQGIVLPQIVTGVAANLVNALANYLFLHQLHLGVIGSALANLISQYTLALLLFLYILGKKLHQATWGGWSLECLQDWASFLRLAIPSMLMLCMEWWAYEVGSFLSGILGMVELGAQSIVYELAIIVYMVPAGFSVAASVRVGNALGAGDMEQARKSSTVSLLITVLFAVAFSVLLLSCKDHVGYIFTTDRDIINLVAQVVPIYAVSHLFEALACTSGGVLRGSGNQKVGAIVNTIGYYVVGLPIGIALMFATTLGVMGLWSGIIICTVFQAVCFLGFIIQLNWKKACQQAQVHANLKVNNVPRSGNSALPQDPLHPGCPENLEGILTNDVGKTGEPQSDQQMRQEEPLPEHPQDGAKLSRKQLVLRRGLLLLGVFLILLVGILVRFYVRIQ
In words: Saracatinib uptake in hMATE1-expressing HEK293 cells (HPLC-UV). Particulars: hMATE1-HEK293, 10 µM saracatinib, 10 min; not significantly different from WT.

The target in series [5] is T2, hOCTN1. The series is described as follows: Saracatinib uptake in hOCTN1-overexpressing HEK293 cells (HPLC-UV).
Description: Twenty-four hours before starting experiments hOCTN1 expression was induced by 1 mg/l doxycycline (Sigma-Aldrich, Steinheim, Germany). Cells were grown at standard conditions. […] Cell number was evaluated with a CASEYTT cell counter (Roche Innovatis, Reutlingen, Germany).
After incubation, cells were washed with ice-cold PBS and hypoosmotic lysis was induced with 0.1% formic acid. […] The mobile phase consisted of (A) acetonitrile with 0.1% formic acid and (B) 0.1% formic acid and was delivered at 0.3 ml/min in a gradient program. After delivering 100% B for 3 min, a linear gradient to 100% A was applied within 7 min and maintained for 5 min. Thereafter, in order to re-equilibrate the column, a simple isocratic elution step with 100% eluent B was applied for at least 6 min. […] Separation was carried out on an Accucore C18 column equipped with a C18 guard column. The data were acquired by ChromQuest 5.0 chromatography software.
Series [6] addresses T1, hOCT2. In words: Saracatinib uptake in hOCT2-overexpressing HEK293 cells (HPLC-UV). Particulars: hOCT2-HEK293, 10 µM saracatinib, 10 min, difference of accumulation at 4 °C and 37 °C.
In series [7] the target is T4, hOCTN2 (Homo sapiens, UniProt O76082).
T4 sequence (O76082 1-557): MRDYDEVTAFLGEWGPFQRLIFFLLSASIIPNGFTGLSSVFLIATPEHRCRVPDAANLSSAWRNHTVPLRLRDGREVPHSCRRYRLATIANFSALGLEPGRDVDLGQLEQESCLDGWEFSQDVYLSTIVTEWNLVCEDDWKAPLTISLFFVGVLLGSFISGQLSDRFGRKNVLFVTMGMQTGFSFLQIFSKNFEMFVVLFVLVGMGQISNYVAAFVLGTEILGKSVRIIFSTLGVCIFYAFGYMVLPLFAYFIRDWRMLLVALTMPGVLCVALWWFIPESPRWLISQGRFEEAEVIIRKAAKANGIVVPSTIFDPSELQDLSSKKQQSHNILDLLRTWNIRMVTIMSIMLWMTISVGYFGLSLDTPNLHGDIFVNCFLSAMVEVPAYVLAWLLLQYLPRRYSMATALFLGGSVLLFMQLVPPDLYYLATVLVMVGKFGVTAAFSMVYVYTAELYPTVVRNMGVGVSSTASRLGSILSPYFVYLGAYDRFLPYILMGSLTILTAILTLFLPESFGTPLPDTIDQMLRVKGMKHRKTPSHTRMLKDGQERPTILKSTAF
In words: Saracatinib uptake in hOCTN2-expressing HEK293 cells (HPLC-UV). To be noted: hOCTN2-HEK293, 10 µM saracatinib, 10 min; not significantly different from WT.

The term IC50 denotes the concentration that inhibits the measured activity by half. As for `CN1CCN(CCOc2cc(OC3CCOCC3)c3c(Nc4c(Cl)ccc5c4OCO5)ncnc3c2)CC1` [saracatinib, N-(5-chloro-1,3-benzodioxol-4-yl)-7-[2-(4-methylpiperazin-1-yl)ethoxy]-5-(tetrahydro-2H-pyran-4-yloxy)quinazolin-4-amine], the IC50 in series [1] worked out at 900 nM; in series [3] it was 72 nM. The “saracatinib accumulation (specific uptake)” value was determined as 1.8 ± 0.5 nmol/mg protein in series [2]; 2.3 ± 0.7 nmol/mg protein in series [4]; 9.3 ± 1.6 nmol/mg protein in series [5] (hOCTN1-HEK293, 10 µM saracatinib, 10 min, difference of accumulation at 4 °C and 37 °C); 7.0 ± 0.5 nmol/mg protein in series [6]; 3.8 ± 1.7 nmol/mg protein in series [7]. In series [5] (hOCTN1-HEK293 cells), the “influence of extracellular pH on saracatinib uptake” value was “pH dependent”. Further, the “time for which hOCTN1 mediated saracatinib accumulation is linear” value in series [5] (hOCTN1-HEK293 cells, 10 µM saracatinib) was “at least 15 min”. In series [5] (hOCTN1-HEK293 cells, 10 min incubation), the “maximum saracatinib uptake (Vmax)” value came out at 79.7 ± 5.2 nmol/mg protein.
